{"source": "patent US11089783B2", "about": "“2-(het)aryl-substituted fused heterocycle derivatives as pesticides” (Bayer Aktiengesellschaft, priority 2017, dated 2021)", "format_in_all_cases": "in vivo", "key": {"Myzus persicae": {"system": "Myzus persicae", "experiment": "Myzus persicae spray test (MYZUPE S), bell pepper plants", "conditions": "144 h, 6 dat, read-out: % efficacy", "how_it_was_run": "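Infested bell pepper plants (Capsicum annuum) sprayed with active ingredient in emulsifier-containing water (1000 ppm emulsifier; ammonium salts/penetrants at 1000 ppm if required). Kill scored in % after the chosen time; 100% = all aphids dead, 0% = none.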"}, "Diabrotica balteata": {"system": "Diabrotica balteata", "experiment": "Diabrotica balteata drench test (DIABBA)", "conditions": "soil, 192 h, 8 dat, read-out: % efficacy", "experimental": "[table] To produce an appropriate active ingredient formulation, 1 part by weight of active ingredient is mixed with the specified amounts of solvent and emulsifier and the concentrate is diluted to the desired concentration with water, it being necessary to take into account the volume of soil into which drenching is effected. It should be ensured that a concentration of 40 ppm of emulsifier in the soil is not exceeded. For production of further test concentrations, the mixture is diluted with water. 5 maize kernels in each case are sown into soil-filled pots (Zea mays) and, the next day, drenched with the active ingredient formulation of the desired concentration. After one day, about 25 L2 larvae of the banded cucumber beetle (Diabrotica balteata) were added. After 8 days, the efficacy in % is determined. 100% means that all 5 plants have germinated and grown; 0% means that no plant has emerged."}, "Nilaparvata lugens": {"system": "Nilaparvata lugens", "experiment": "Nilaparvata lugens spray test (NILALU)", "conditions": "Nilaparvata lugens, 96 h, 4 g/ha, 4 dat, read-out: % efficacy", "how_it_was_run": "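Rice plants (Oryza sativa) sprayed with compound formulated in solvent and water with 1000 ppm emulsifier, ammonium salts/penetrants at 1000 ppm if needed, then infested with brown planthopper larvae. After the set time, efficacy scored as % planthoppers killed (100% all, 0% none).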"}}, "data": [{"smiles": "CCS(=O)(=O)c1ccc(N(C)C(=O)NC)nc1-c1nc2cc(C(F)(F)C(F)(F)F)nnc2n1C", "note": "[Example I-09]", "values": [{"measurement": "Emax at 0.16 ppm", "setting": "Myzus persicae; 0.16 ppm", "result": 80, "unit": "%"}, {"measurement": "Emax at 0.8 ppm", "setting": "Myzus persicae; 0.8 ppm", "result": 100, "unit": "%"}]}, {"smiles": "CCS(=O)(=O)c1ccc(NC(=O)NC)nc1-c1nc2cc(C(F)(F)C(F)(F)F)nnc2n1C", "note": "[Example I-08, 1-{5-(ethylsulfonyl)-6-[7-methyl-3-(pentafluoroethyl)-7H-imidazo[4,5-c]pyridazin-6-yl]pyridin-2-yl}-3-methylurea]", "values": [{"measurement": "Emax at 20 ppm", "setting": "Diabrotica balteata", "result": 100, "unit": "%"}]}, {"smiles": "CCS(=O)(=O)c1ccc(NC(=O)N(C)C)nc1-c1nc2cc(C(F)(F)C(F)(F)F)nnc2n1C", "note": "[Example I-10]", "values": [{"measurement": "Emax at 4 g/ha", "setting": "Nilaparvata lugens", "result": 90, "unit": "%"}]}]}
